Source: patent US5169963A, “Di-(5-hydroxy-2(5H)2-oxo-4-furyl)alkylmethyl-alpha,omega alkanedioates and N,N-bis-(5-hydroxy-2(5H)2-oxo-4-furyl)alkylmethyl-alpha,omega-dialkanoic acid amides as anti-inflammatory agents” (Allergan, Inc., priority 1991, dated 1992)

Tests used:
[1] = target: phosphoinositide-specific phospholipase C; test: Inhibition of Phosphoinositide-specific Phospholipase C; assay type: biochemical; settings: procedure of Bennett et al, Molecular Pharmacology 32:587-593 (1987); read-out: PLC IC50
Description: Inhibition of Phosphoinositide-specific Phospholipase C
The effect of compounds of this invention on phosphoinositide-specific phospholipase C may be determined by procedures described by Bennett et al, Molecular Pharmacology 32:587-593 (1987).

[2] = target: bee venom phospholipase A2 (Apis mellifera, UniProt P00630); test: biochemical; settings: read-out: PLA2 IC50
Chain of bee venom phospholipase A2 (P00630 34-167 limits assumed): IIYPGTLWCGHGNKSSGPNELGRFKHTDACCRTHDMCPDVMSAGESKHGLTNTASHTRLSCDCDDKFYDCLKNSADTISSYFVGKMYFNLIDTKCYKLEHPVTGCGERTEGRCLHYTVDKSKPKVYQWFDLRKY

Compound | IC50 [1] [nM] | IC50 [2] [nM]
CC(=CCCC1=CCC(C2=CC(=O)OC2O)OC1O)CCC1=C(C)CCCC1(C)C (centres unmarked) [manoalide, Manoalide, reference compound] | 3000 | 
CCCCCCC(OC(=O)CC(=O)OC(CCCCCC)C1=CC(=O)OC1O)C1=CC(=O)OC1O (centres unmarked) [Compound 4, Di[(1-5-hydroxy-2(5H)2-oxo-4-furyl)heptyl]malonate] |  | 30
CCCCCCCCCCCCC(OC(=O)CC(=O)OC(CCCCCCCCCCCC)C1=CC(=O)OC1O)C1=CC(=O)OC1O (centres unmarked) [Compound 1, Bis[1-(5-hydroxy-2(5H)-furano-4-yl)tridecyl]malonate] | 2000 | 20
CCCCCCCCCCCCC(OC(=O)CCCC(=O)OC(CCCCCCCCCCCC)C1=CC(=O)OC1O)C1=CC(=O)OC1O (centres unmarked) [Compound 2] |  | 30
